Laboratory results as given in patent US10111435B2, “Herbicidal compositions containing N-(1,3,4-oxadiazol-2-yl)-aryl carboxylic acid amides” (BAYER CROPSCIENCE AKTIENGESELLSCHAFT, priority 2013, dated 2018).

Assays:
Type in all cases: in vivo
[1] = tested on: Echinochloa crus-galli (ECHCG); assay: greenhouse post-emergence herbicidal efficacy against ECHCG
Summary of the method: (§1)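 Visual ratings (0% no effect, 100% complete kill) at 14 and 21 days after a post-emergence spray of 300 L/ha onto pot-grown weeds under greenhouse conditions. Mixtures and single active ingredients both tested. Differences from Colby-expected values, E^C=A+B−A×B/100, classify interactions as synergistic, additive or antagonistic.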

Eleusine indica (ELEIN) = assay: greenhouse post-emergence herbicidal efficacy against ELEIN
Summary of the method: as §1

Setaria viridis (SETVI) = assay: greenhouse post-emergence herbicidal efficacy against SETVI
Summary of the method: as §1

[2] = tested on: Amaranthus retroflexus (AMARE); assay: greenhouse post-emergence herbicidal efficacy against AMARE; details: 0.4 g of a.i./ha
Summary of the method: as §1

[3] = tested on: Chenopodium album (CHEAL); assay: greenhouse post-emergence herbicidal efficacy against CHEAL
Summary of the method: as §1

Kochia scoparia (KCHSC) = assay: greenhouse post-emergence herbicidal efficacy against KCHSC
Summary of the method: as §1

Solanum nigrum (SOLNI) = assay: greenhouse post-emergence herbicidal efficacy against SOLNI
Summary of the method: as §1

Avena fatua (AVEFA) = assay: greenhouse post-emergence herbicidal efficacy against AVEFA
Summary of the method: (§2)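 Seeds were sown in 8 cm pots of sandy loam and germinated under optimal conditions. Compositions or single active ingredients were sprayed post-emergence at 300 L/ha in the greenhouse. Visual % damage versus untreated plants (0% none, 100% complete kill) was scored 14 and 21 days after application, with Colby expected values (E^C=A+B−A×B/100) used to judge synergism.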

Bromus sterilis (BROST) = assay: greenhouse post-emergence herbicidal efficacy against BROST; details: 21 days after application
Summary of the method: as §2

[4] = tested on: Lolium multiflorum (LOLMU); assay: greenhouse post-emergence herbicidal efficacy against LOLMU; details: 21 days after application
Summary of the method: as §2

Phalaris minor (PHAMI) = assay: greenhouse post-emergence herbicidal efficacy against PHAMI
Summary of the method: as §2

Poa annua (POAAN) = assay: greenhouse post-emergence herbicidal efficacy against POAAN
Summary of the method: as §2

Galium aparine (GALAP) = assay: greenhouse post-emergence herbicidal efficacy against GALAP; details: for Efficacy: 14 days after application
Summary of the method: as §2

[5] = tested on: Matricaria inodora (MATIN); assay: greenhouse post-emergence herbicidal efficacy against MATIN; details: 14 days after application
Summary of the method: as §2

[6] = tested on: Polygonum convolvulus (POLCO); assay: greenhouse post-emergence herbicidal efficacy against POLCO; details: 21 days after application
Summary of the method: as §2

DIGSA = assay: greenhouse post-emergence herbicidal efficacy against DIGSA; details: 14 days after application, 0.4 g of a.i./ha
Summary of the method: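 Pot-grown plants in sandy loam sprayed post-emergence at 300 L/ha in the greenhouse, with compositions or single active ingredients. Damage scored visually against untreated plants 14 and 21 days after application (0% none, 100% complete kill); combination interactions evaluated by Colby's expected-value formula.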

[7] = 14 days after application, 0.1 g of a.i./ha
[8] = 14 days after application, 0.4 g of a.i./ha
[9] = 21 days after application, 0.1 g of a.i./ha
[10] = 21 days after application, 0.4 g of a.i./ha
[11] = 21 days after application; 0.1 g of a.i./ha
[12] = 21 days after application; 0.4 g of a.i./ha
[13] = 14 days after application, 10 g of a.i./ha
[14] = 21 days after application, g of a.i./ha: A1-13 2.5, indaziflam 40
[15] = 21 days after application, g of a.i./ha: A1-13 2.5, mesosulfuron-methyl 10
[16] = 21 days after application, g of a.i./ha: A1-13 10, indaziflam 40
[17] = 21 days after application, g of a.i./ha: A1-13 10, mesosulfuron-methyl 10
[18] = g of a.i./ha: A1-13 2.5, mesosulfuron-methyl 10
[19] = g of a.i./ha: A1-13 10, indaziflam 10
[20] = g of a.i./ha: A1-13 10, mesosulfuron-methyl 10
[21] = 14 days after application, 2.5 g of a.i./ha
[22] = 21 days after application, dosage 10 g of a.i./ha
[23] = g of a.i./ha: A1-13 2.5, indaziflam 10

**Q.** What does the source list for Cc1nnc(NC(=O)c2ccc(C(F)(F)F)c(S(C)(=O)=O)c2C)o1 [A1-13]?
**A.** Efficacy [1, 7]: 0%; Efficacy [1, 8]: 0%; Efficacy [1, 9]: 0%; Efficacy [1, 10]: 0%; Efficacy [1, 11]: 0%; Efficacy [1, 12]: 0%; Efficacy (Eleusine indica (ELEIN); [8]): 20%; Efficacy (Eleusine indica (ELEIN); [9]): 0%; Efficacy (Eleusine indica (ELEIN); [10]): 10%; Efficacy (Eleusine indica (ELEIN); [11]): 0%; Efficacy (Eleusine indica (ELEIN); [12]): 10%; Efficacy (Setaria viridis (SETVI); [7]): 0%; Efficacy (Setaria viridis (SETVI); [8]): 10%; Efficacy (Setaria viridis (SETVI); [9]): 0%; Efficacy (Setaria viridis (SETVI); [10]): 10%; Efficacy (Setaria viridis (SETVI); [11]): 0%; Efficacy (Setaria viridis (SETVI); [12]): 10%; Efficacy ([2]; 14 days after application): 0%; Efficacy ([2]; 21 days after application): 10%; Efficacy [3, 7]: 0%; Efficacy [3, 8]: 10%; Efficacy [3, 9]: 0%; Efficacy (Kochia scoparia (KCHSC); [7]): 0%; Efficacy (Kochia scoparia (KCHSC); [8]): 0%; Efficacy (Kochia scoparia (KCHSC); [10]): 0%; Efficacy (Kochia scoparia (KCHSC); [11]): 0%; Efficacy (Kochia scoparia (KCHSC); [12]): 0%; Efficacy (Solanum nigrum (SOLNI); [7]): 10%; Efficacy (Solanum nigrum (SOLNI); [8]): 20%; Efficacy (Solanum nigrum (SOLNI); [10]): 10%; Efficacy (Avena fatua (AVEFA); [13]): 35%; Efficacy (Avena fatua (AVEFA); [14]): 0%; Efficacy (Avena fatua (AVEFA); [15]): 0%; Efficacy (Avena fatua (AVEFA); [16]): 3%; Efficacy (Avena fatua (AVEFA); [17]): 3%; Efficacy (Bromus sterilis (BROST); g of a.i./ha: A1-13 2.5, mesosulfuron-methyl 2.5): 0%; Efficacy (Bromus sterilis (BROST); [18]): 0%; Efficacy (Bromus sterilis (BROST); [19]): 5%; Efficacy (Bromus sterilis (BROST); [20]): 5%; Efficacy [4, 19]: 5%; Efficacy [4, 20]: 5%; Efficacy (Phalaris minor (PHAMI); [21]): 30%; Efficacy (Phalaris minor (PHAMI); [13]): 30%; Efficacy (Phalaris minor (PHAMI); 14 days after application, g of a.i./ha: A1-13 2.5, indaziflam 40): 30%; Efficacy (Phalaris minor (PHAMI); 14 days after application, g of a.i./ha: A1-13 10, indaziflam 40): 30%; Efficacy (Phalaris minor (PHAMI); [14]): 15%; Efficacy (Phalaris minor (PHAMI); 21 days after application, g of a.i./ha: A1-13 2.5, mesosulfuron-methyl 2.5): 15%; Efficacy (Phalaris minor (PHAMI); [15]): 15%; Efficacy (Phalaris minor (PHAMI); [16]): 20%; Efficacy (Phalaris minor (PHAMI); [17]): 20%; Efficacy (Poa annua (POAAN); [21]): 20%; Efficacy (Poa annua (POAAN); [13]): 40%; Efficacy against POAAN (Poa annua (POAAN); [22]): 20%; Efficacy (Poa annua (POAAN); [15]): 10%; Efficacy (Galium aparine (GALAP); 10 g of a.i./ha): 50%; Efficacy (Galium aparine (GALAP); [23]): 40%; Efficacy (Galium aparine (GALAP); g of a.i./ha: A1-13 10, indaziflam 40): 50%; Efficacy against GALAP (Galium aparine (GALAP); [22]): 60%; Efficacy ([5]; 2.5 g of a.i./ha): 30%; Efficacy ([5]; 10 g of a.i./ha): 40%; Efficacy [5, 23]: 30%; Efficacy [5, 19]: 40%; Efficacy [6, 18]: 0%; Efficacy [6, 20]: 0%; Efficacy (DIGSA): 0%
